What was measured:
Assay in all cases: relative viability (nuclei count vs DMSO), 5 days (fraction); higher = more cells survive
[1] = compound: CC1=C(C(=NN1)C)CC2=C(C3=C(S2)N(C(=O)N(C3=O)C)CC(C)C)C(=O)N4C[C@@H](CO4)O + COc1cccc2cc(-c3nc([C@H]4CC[C@H](C(=O)O)CC4)n4ncnc(N)c34)[nH]c12 [OSI-027] (partner 0.5 µM)
How it was run: (§1)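 Relative viability equals treated-well nuclei counts divided by vehicle-well nuclei counts. Counts came from 4× images of lung cancer cell lines grown in 1536-well plates for 5 days after pin-tool dosing on the day after seeding. Dosing used one drug alone or a fixed anchor-drug dose plus five library-drug doses (not always all listed) in √10 steps, and values are medians of duplicate plates.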

[2] = compound: CC1=C(C(=NN1)C)CC2=C(C3=C(S2)N(C(=O)N(C3=O)C)CC(C)C)C(=O)N4C[C@@H](CO4)O + C[C@]1(O)C[C@@H](c2nc(-c3ccc4ccc(-c5ccccc5)nc4c3)c3c(N)nccn32)C1 [Linsitinib] (partner 1 µM)
How it was run: as §1

[3] = compound: CC1=C(C(=NN1)C)CC2=C(C3=C(S2)N(C(=O)N(C3=O)C)CC(C)C)C(=O)N4C[C@@H](CO4)O + N=C(N)NC(=N)NCCc1ccccc1 [Phenformin] (partner 250 µM)
How it was run: as §1

IDH-C35 + Luminespib = compound: Cc1ccccc1C(C(=O)NC1CCCCC1)N(C(=O)Cn1ccnc1C)c1cccc(F)c1 [IDH-C35] + CCNC(=O)c1noc(-c2cc(C(C)C)c(O)cc2O)c1-c1ccc(CN2CCOCC2)cc1 [Luminespib] (partner 0.01 µM)
How it was run: as §1

Cell Line	relative viability ([1]; first compound 0.0025 µM)	relative viability ([1]; first compound 0.007906 µM)	relative viability ([1]; first compound 0.025 µM)	relative viability ([1]; first compound 0.07906 µM)	relative viability ([1]; first compound 0.25 µM)	relative viability ([2]; first compound 0.0025 µM)	relative viability ([2]; first compound 0.007906 µM)	relative viability ([2]; first compound 0.025 µM)	relative viability ([2]; first compound 0.07906 µM)	relative viability ([2]; first compound 0.25 µM)	relative viability ([3]; first compound 0.0025 µM)	relative viability ([3]; first compound 0.007906 µM)	relative viability ([3]; first compound 0.025 µM)	relative viability ([3]; first compound 0.07906 µM)	relative viability ([3]; first compound 0.25 µM)	relative viability (IDH-C35 + Luminespib; first compound 0.08 µM)	relative viability (IDH-C35 + Luminespib; first compound 0.253 µM)	relative viability (IDH-C35 + Luminespib; first compound 0.8 µM)	relative viability (IDH-C35 + Luminespib; first compound 2.53 µM)	relative viability (IDH-C35 + Luminespib; first compound 8 µM)
SK-LU-1	0.311	0.227	0.217	0.246	0.229	0.86	0.712	0.711	0.774	0.731	0.338	0.234	0.191	0.202	0.223	0.219	0.207	0.188	0.225	0.259
COR-L 105	0.741	0.694	0.663	0.838	0.679	1.1	0.943	0.853	0.961	0.95	0.34	0.324	0.231	0.279	0.244	0.722	0.951	0.715	0.819	0.742
NCI-H1975	0.751	0.648	0.802	0.804	0.879	0.956	1.04	1	0.949	1.08	0.401	0.426	0.401	0.389	0.376	0.165	0.244	0.206	0.276	0.135
NCI-H1993	0.515	0.539	0.541	0.463	0.57	0.75	0.678	0.855	0.781	0.74	0.495	0.416	0.457	0.433	0.436	0.793	0.882	0.914	0.836	0.936
RERF-LC-KJ	0.589	0.519	0.598	0.681	0.627	0.973	0.931	0.925	0.899	0.95	0.434	0.46	0.431	0.428	0.481	1.21	1.34	1.22	1.17	1.19
NCI-H23	0.814	0.557	0.701	0.475	0.602	0.521	0.548	0.516	0.565	0.777	0.794	0.858	0.839	0.804	0.774	0.207	0.224	0.201	0.202	0.227
EMC-BAC-2	0.416	0.403	0.394	0.43	0.416	0.816	0.892	0.821	0.826	0.881	0.538	0.548	0.518	0.478	0.601	1.18	1.18	1.18	1.14	1.14
NCI-H2405	0.703	0.645		0.62	0.661	0.972	0.902		0.881	0.73	0.348	0.286		0.277	0.268	0.755	0.63	0.614	0.706	0.64

From the supplement of paper PMC10307832
